Reference: ChEMBL document CHEMBL1137068, “Design, synthesis and evaluation of bicyclic benzamides as novel 5-HT1F receptor agonists” (Bioorg Med Chem Lett, 2004)

Experiments:
Homo sapiens [1] = species: Homo sapiens; assay: Ratio of binding affinity for 5-hydroxytryptamine 1A receptor to that of 5-hydroxytryptamine 1F receptor
Homo sapiens [2] = species: Homo sapiens; assay: Ratio of binding affinity for 5-hydroxytryptamine 1D receptor to that of 5-hydroxytryptamine 1F receptor
[3] = molecular target: T1, 5-hydroxytryptamine receptor 1F (Homo sapiens) (UniProt P30939); assay: Maximum stimulation of [35S]GTP-gamma-S, binding to human 5-hydroxytryptamine 1F receptor expressed in Mouse LM(tk-) cells relative to maximum effect of 5-HT; type: functional, cell-based
T1 sequence (whole entry): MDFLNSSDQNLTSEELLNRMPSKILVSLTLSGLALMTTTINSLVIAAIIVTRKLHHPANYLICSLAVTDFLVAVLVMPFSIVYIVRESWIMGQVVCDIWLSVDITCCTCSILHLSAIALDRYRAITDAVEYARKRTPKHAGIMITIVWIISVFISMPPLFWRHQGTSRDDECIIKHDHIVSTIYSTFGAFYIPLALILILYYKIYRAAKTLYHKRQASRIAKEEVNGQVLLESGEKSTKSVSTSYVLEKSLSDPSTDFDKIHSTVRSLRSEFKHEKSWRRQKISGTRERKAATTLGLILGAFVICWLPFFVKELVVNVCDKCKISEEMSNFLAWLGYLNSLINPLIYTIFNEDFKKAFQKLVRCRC

[4] = molecular target: T2, 5-hydroxytryptamine receptor 1F (Homo sapiens, UniProt P30939); assay: Stimulation of [35S]GTP-gamma-S, binding to cloned human 5-hydroxytryptamine 1F receptor expressed in Mouse LM(tk-) cells; type: functional, cell-based
T2 sequence (P30939 whole entry): T1 sequence (whole entry)

[5] = molecular target: T2, 5-hydroxytryptamine receptor 1F; assay: In vitro binding affinity for human 5-hydroxytryptamine 1F receptor
[6] = molecular target: T3, 5-hydroxytryptamine receptor 1D (Homo sapiens, UniProt P28221); assay: Inhibitory activity against 5-hydroxytryptamine 1D receptor at 10 uM
[7] = molecular target: T4, 5-hydroxytryptamine receptor 1B (Homo sapiens, UniProt P28222); assay: Inhibitory activity against 5-hydroxytryptamine 1B receptor at 10 uM
[8] = molecular target: T5, 5-hydroxytryptamine receptor 1A (Homo sapiens, UniProt P08908); assay: In vitro binding affinity for human 5-hydroxytryptamine 1A receptor
T5 sequence (P08908 whole entry): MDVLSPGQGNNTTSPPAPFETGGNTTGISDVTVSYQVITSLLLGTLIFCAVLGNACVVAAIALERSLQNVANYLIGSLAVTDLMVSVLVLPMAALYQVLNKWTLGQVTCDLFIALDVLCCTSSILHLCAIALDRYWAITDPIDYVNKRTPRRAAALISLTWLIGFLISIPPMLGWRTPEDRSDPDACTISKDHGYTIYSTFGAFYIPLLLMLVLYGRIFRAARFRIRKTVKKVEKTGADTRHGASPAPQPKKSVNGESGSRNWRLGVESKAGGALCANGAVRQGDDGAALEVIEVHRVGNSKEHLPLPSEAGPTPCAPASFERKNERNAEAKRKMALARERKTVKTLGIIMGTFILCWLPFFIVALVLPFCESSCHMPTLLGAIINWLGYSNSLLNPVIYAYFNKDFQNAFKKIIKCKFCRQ

[9] = molecular target: T3, 5-hydroxytryptamine receptor 1D; assay: In vitro binding affinity for human 5-hydroxytryptamine 1D receptor
[10] = molecular target: T4, 5-hydroxytryptamine receptor 1B; assay: In vitro binding affinity for human 5-hydroxytryptamine 1B receptor
[11] = molecular target: T4, 5-hydroxytryptamine receptor 1B; assay: Inhibitory activity against human 5-hydroxytryptamine 1B receptor; details: concentration not given here
[12] = molecular target: T3, 5-hydroxytryptamine receptor 1D; assay: Inhibitory activity against human 5-hydroxytryptamine 1D receptor; details: concentration not given here

T4 sequence (P28222 whole entry): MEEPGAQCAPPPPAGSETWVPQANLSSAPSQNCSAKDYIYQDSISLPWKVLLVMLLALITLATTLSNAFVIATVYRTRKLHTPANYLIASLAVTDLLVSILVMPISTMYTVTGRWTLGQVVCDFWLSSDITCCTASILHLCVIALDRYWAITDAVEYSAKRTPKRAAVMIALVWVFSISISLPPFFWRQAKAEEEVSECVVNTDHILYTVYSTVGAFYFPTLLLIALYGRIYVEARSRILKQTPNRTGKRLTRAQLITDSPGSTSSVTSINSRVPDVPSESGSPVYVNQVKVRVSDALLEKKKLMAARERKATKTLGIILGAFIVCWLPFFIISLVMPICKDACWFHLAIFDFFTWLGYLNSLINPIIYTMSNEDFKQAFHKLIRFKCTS
T3 sequence (P28221 whole entry): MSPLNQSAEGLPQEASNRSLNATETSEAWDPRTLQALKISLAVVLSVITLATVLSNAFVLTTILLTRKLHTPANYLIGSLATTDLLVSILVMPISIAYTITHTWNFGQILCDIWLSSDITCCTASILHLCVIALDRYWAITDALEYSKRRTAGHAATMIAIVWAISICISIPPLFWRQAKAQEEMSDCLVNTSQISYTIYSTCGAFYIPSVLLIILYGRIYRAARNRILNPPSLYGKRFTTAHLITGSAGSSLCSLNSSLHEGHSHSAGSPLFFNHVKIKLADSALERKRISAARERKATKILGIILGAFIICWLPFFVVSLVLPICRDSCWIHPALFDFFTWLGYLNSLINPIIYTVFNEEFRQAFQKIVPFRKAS

Row | SMILES | Selectivity ratio (Homo sapiens [1]) | Ki [5] [µM] | Ki [8] [µM] | Ki [9] [µM] | further results
1 | CN1CCC(N2CNc3ccc(NC(=O)c4ccc(F)cc4Cl)cc32)CC1 | 70 | 0.013 | – | – | Selectivity ratio (Homo sapiens [2]): 80; Emax [3]: 98%; EC50 [4]: 0.063 µM
2 | CN1CCC(c2noc3ccc(NC(=O)c4ccc(F)cc4)cc23)CC1 | 10 | 0.017 | 0.16 | – | inhibition [6]: < 50%; inhibition [7]: < 50%
3 | CN1CCC(N2CNc3ccc(NC(=O)c4c(F)cc(F)cc4F)cc32)CC1 | 50 | 0.017 | – | – | Selectivity ratio (Homo sapiens [2]): 120; Emax [3]: 95%; EC50 [4]: 0.05 µM
4 | CN1CCC(N2CCc3ccc(NC(=O)c4ccc(F)cc4)cc32)CC1 | – | 0.0048 | 0.012 | 0.21 | Ki [10]: 0.44 µM
5 | CN1CCC(C2CNc3ccc(NC(=O)c4ccc(F)cc4)cc32)CC1 (stereo in doubt; form 2) [listing 1 of 2 here] | – | – | – | – | inhibition [11]: < 50%
6 | CN1CCC(c2noc3ccc(NC(=O)c4ccc(F)cc4Cl)cc23)CC1 | 30 | 0.0036 | – | – | Emax [3]: 71%; EC50 [4]: 0.14 µM
7 | CN1CCC(n2ccc3ccc(NC(=O)c4ccc(F)cc4)cc32)CC1 | – | 0.0022 | 0.011 | 0.14 | Ki [10]: 0.26 µM
8 | CN1CCC(C2CNc3ccc(NC(=O)c4ccc(F)cc4)cc32)CC1 (stereo in doubt; 3) [listing 1 of 2 here] | – | 0.009 | 0.24 | 2.3 | –
9 | CN1CCC(c2n[nH]c3ccc(NC(=O)c4ccc(F)cc4)cc23)CC1 | – | 0.0039 | 0.87 | 3.1 | Ki [10]: 2.3 µM
10 | CN1CCC(N2CCOc3ccc(NC(=O)c4ccc(F)cc4)cc32)CC1 | – | 0.52 | 0.86 | 2.3 | inhibition [11]: < 50%
11 | CN1CCC(C2CNc3ccc(NC(=O)c4ccc(F)cc4)cc32)CC1 (stereo in doubt; form 2) [listing 2 of 2 here] | – | 0.0096 | 0.25 | – | –
12 | CN1CCC(c2noc3ccc(NC(=O)c4ccc(F)cc4F)cc23)CC1 | 10 | 0.012 | – | – | Emax [3]: 73%; EC50 [4]: 0.47 µM
13 | CN1CCC(C2CNc3ccc(NC(=O)c4ccc(F)cc4)cc32)CC1 (stereo in doubt; form 1) [listing 1 of 2 here] | – | – | – | – | inhibition [11]: < 50%
14 | CN1CCC(C2CNc3ccc(NC(=O)c4ccc(F)cc4)cc32)CC1 (stereo in doubt; 3) [listing 2 of 2 here] | 30 | – | – | – | Selectivity ratio (Homo sapiens [2]): 250; inhibition [11]: < 50%
15 | CN1CCC(C2CNc3ccc(NC(=O)c4ccc(F)cc4)cc32)CC1 (stereo in doubt; form 1) [listing 2 of 2 here] | – | 0.0086 | 0.25 | – | –
16 | CN1CCC(n2ncc3ccc(NC(=O)c4ccc(F)cc4)cc32)CC1 | – | 0.0041 | 0.31 | – | inhibition [12]: < 50%; Ki [10]: 2.4 µM
